Data reported in patent publication US9199946B2, “Pyrimidinone carboxamide inhibitors of endothelial lipase” (BRISTOL-MYERS SQUIBB COMPANY, priority 2012, dated 2015).
Read-outs that look alike come from different tables or passages of the source.

Target: T1, Endothelial lipase (EL) (Homo sapiens, UniProt Q9Y5X9)
T1 construct: HT-1080 cells, which were transformed by RAGE technology (Athersys) to overexpress endogenous EL; endogenous in cells; conditioned medium used as the enzyme source
T1 sequence (Q9Y5X9 21-500): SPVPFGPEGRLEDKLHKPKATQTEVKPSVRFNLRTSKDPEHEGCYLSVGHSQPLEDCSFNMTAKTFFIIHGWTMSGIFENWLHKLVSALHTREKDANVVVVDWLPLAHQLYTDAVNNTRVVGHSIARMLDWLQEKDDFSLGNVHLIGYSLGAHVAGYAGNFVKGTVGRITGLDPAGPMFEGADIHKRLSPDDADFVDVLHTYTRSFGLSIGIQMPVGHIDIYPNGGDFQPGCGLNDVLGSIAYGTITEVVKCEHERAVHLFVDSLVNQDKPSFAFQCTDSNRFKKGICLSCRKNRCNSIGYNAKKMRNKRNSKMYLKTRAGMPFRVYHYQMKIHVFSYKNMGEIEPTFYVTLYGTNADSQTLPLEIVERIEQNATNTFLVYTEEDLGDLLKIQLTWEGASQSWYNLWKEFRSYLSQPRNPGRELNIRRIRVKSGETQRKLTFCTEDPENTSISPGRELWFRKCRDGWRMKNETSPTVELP
Test: Endothelial lipase (EL) enzymatic assay with fluorescent substrate A10070 in DMPG vesicles
Assay type: biochemical
Procedure, shortened: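 EL activity was followed as a fluorescence rate (488/530 nm, reads every 20 s for 10 min, linear slope) on A10070 doped at 0.05 mole fraction into sonicated DMPG vesicles. Compound was first incubated 20 min at 37 °C, pH 8.0 HEPES/CaCl2 buffer, with conditioned media from EL-overexpressing HT-1080 cells.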

[1] = range observed in the EL assay, read-out: EL IC50 values
[2] = conditioned media from HT-1080 cells overexpressing endogenous EL, 20 min preincubation at 37° C., read-out: EL IC50

| IC50 [1] | IC50 [2] | Structure (SMILES) |
| --- | --- | --- |
| ≤ 10 µM |  | CN(C)c1cccc(-c2ccc([C@@H]3CC[C@H](NC(=O)c4[nH]c(=O)[nH]c(=O)c4N)C3)cc2)c1 [Example 166, 5-amino-N-((1S,3R)-3-(3′-(dimethylamino)biphenyl-4-yl)cyclopentyl)-2,6-dioxo-1,2,3,6-tetrahydropyrimidine-4-carboxamide] |
| ≤ 10 µM | 0.439 µM | CC(C)(O)CNc1c(C(=O)N[C@H]2CC[C@@H](c3ccccc3)CC2)[nH]c(=O)[nH]c1=O [Example 234, 5-(2-hydroxy-2-methylpropylamino)-2,6-dioxo-N-(cis-4-phenylcyclohexyl)-1,2,3,6-tetrahydropyrimidine-4-carboxamide] |
| ≤ 10 µM |  | Nc1c(C(=O)N[C@H]2CC[C@@H](NC(=O)Nc3ccccc3)CC2)[nH]c(=O)[nH]c1=O [Example 118, 5-amino-2,6-dioxo-N-(cis-4-(3-phenylureido)cyclohexyl)-1,2,3,6-tetrahydropyrimidine-4-carboxamide] |
| ≤ 10 µM |  | Nc1c(C(=O)N[C@H]2CC[C@@H](c3ccccc3)C2)[nH]c(=O)[nH]c1=O [Example 78, 5-amino-2,6-dioxo-N-((1S,3R)-3-phenylcyclopentyl)-1,2,3,6-tetrahydropyrimidine-4-carboxamide] |
| ≤ 10 µM |  | Nc1c(C(=O)N[C@H]2CCN(c3ccccc3)C2)[nH]c(=O)[nH]c1=O [Example 192, (S)-5-amino-2,6-dioxo-N-(1-phenylpyrrolidin-3-yl)-1,2,3,6-tetrahydropyrimidine-4-carboxamide] |
| ≤ 10 µM |  | Nc1c(C(=O)N[C@@H]2CC[C@@H](C(=O)N[C@H]3CC[C@@H](c4ccccc4)CC3)C2)[nH]c(=O)[nH]c1=O [Example 147, 5-amino-2,6-dioxo-N-((1R,3R)-3-(cis-4-phenylcyclohexylcarbamoyl)cyclopentyl)-1,2,3,6-tetrahydropyrimidine-4-carboxamide] |
| ≤ 10 µM |  | CC(CO)Nc1c(C(=O)N[C@H]2CC[C@@H](c3ccccc3)CC2)[nH]c(=O)[nH]c1=O (stereo partly drawn) [Example 235, 5-(1-hydroxypropan-2-ylamino)-2,6-dioxo-N-(cis-4-phenylcyclohexyl)-1,2,3,6-tetrahydropyrimidine-4-carboxamide] |
| ≤ 10 µM |  | O=C(N[C@H]1CC[C@@H](c2ccccc2)CC1)c1[nH]c(=O)[nH]c(=O)c1NC1CCC1 [Example 233, 5-(cyclobutylamino)-2,6-dioxo-N-(cis-4-phenylcyclohexyl)-1,2,3,6-tetrahydropyrimidine-4-carboxamide] |
| ≤ 10 µM |  | CC(C)CNc1c(C(=O)N[C@H]2CC[C@@H](c3ccccc3)CC2)[nH]c(=O)[nH]c1=O [Example 206, 5-(isobutylamino)-2,6-dioxo-N-(cis-4-phenylcyclohexyl)-1,2,3,6-tetrahydropyrimidine-4-carboxamide] |
| ≤ 10 µM |  | O=C(NC1CCC(c2cnn(Cc3ccccc3)c2)C1)c1[nH]c(=O)[nH]c(=O)c1O (stereo not shown) [Example 283, N-(3-(1-benzyl-1H-pyrazol-4-yl)cyclopentyl)-5-hydroxy-2,6-dioxo-1,2,3,6-tetrahydropyrimidine-4-carboxamide] |
| ≤ 10 µM |  | Nc1c(C(=O)N[C@H]2CC[C@@H](c3ccc(-c4cccc(CO)c4)cc3)C2)[nH]c(=O)[nH]c1=O [Example 178, 5-amino-N-((1S,3R)-3-(3′-(hydroxymethyl)biphenyl-4-yl)cyclopentyl)-2,6-dioxo-1,2,3,6-tetrahydropyrimidine-4-carboxamide] |
| ≤ 10 µM | 0.03 µM | Nc1c(C(=O)NC2CCCC(c3cnn(Cc4ccccc4)c3)C2)[nH]c(=O)[nH]c1=O (stereo not shown) [Example 127, 5-amino-N-(3-(1-benzyl-1H-pyrazol-4-yl)cyclohexyl)-2,6-dioxo-1,2,3,6-tetrahydropyrimidine-4-carboxamide] |

The next lines start with the compound.

| Structure (SMILES) | IC50 [1] | IC50 [2] |
| --- | --- | --- |
| O=C(N[C@H]1CC[C@@H](c2ccccc2)CC1)c1[nH]c(=O)[nH]c(=O)c1NCc1ccc(F)cc1 [Example 205, 5-(4-Fluorobenzylamino)-2,6-dioxo-N-(cis-4-phenylcyclohexyl)-1,2,3,6-tetrahydropyrimidine-4-carboxamide] | ≤ 10 µM |  |
| COC(=O)[C@@H]1C[C@@H](NC(=O)c2[nH]c(=O)[nH]c(=O)c2N)c2ccccc2[C@H]1c1ccccc1 [Example 23, (1R,2R,4R)-methyl 4-(5-amino-2,6-dioxo-1,2,3,6-tetrahydropyrimidine-4-carboxamido)-1-phenyl-1,2,3,4-tetrahydronaphthalene-2-carboxylate] | ≤ 10 µM |  |
| C[C@H](Nc1c(C(=O)N[C@H]2CC[C@@H](c3ccccc3)CC2)[nH]c(=O)[nH]c1=O)C1CCCCC1 [Example 232, 5-((S)-1-cyclohexylethylamino)-2,6-dioxo-N-(cis-phenylcyclohexyl)-1,2,3,6-tetrahydropyrimidine-4-carboxamide] | ≤ 10 µM |  |
| COc1cccc2c1C(NC(=O)c1[nH]c(=O)[nH]c(=O)c1N)CCC2 (stereo not shown) [Example 66, 5-amino-N-(8-methoxy-1,2,3,4-tetrahydronaphthalen-1-yl)-2,6-dioxo-1,2,3,6-tetrahydropyrimidine-4-carboxamide] | ≤ 10 µM |  |
| CCOC(=O)N1CCC(NC(=O)c2[nH]c(=O)[nH]c(=O)c2N)c2ccccc21 (racemic) [Example 25, ethyl 4-(5-amino-2,6-dioxo-1,2,3,6-tetrahydropyrimidine-4-carboxamido)-3,4-dihydroqiiinoline-1(2H)-carboxylate] | ≤ 10 µM | 1.06 µM |
| COc1ccc2c(c1)C(NC(=O)c1[nH]c(=O)[nH]c(=O)c1N)CCC2 (stereo not shown) [Example 39, 5-amino-N-(7-methoxy-1,2,3,4-tetrahydronaphthalen-1-yl)-2,6-dioxo-1,2,3,6-tetrahydropyrimidine-4-carboxamide] | ≤ 10 µM |  |
| Nc1c(C(=O)N[C@@H]2CCc3c(Cl)cc(Cl)cc32)[nH]c(=O)[nH]c1=O [Example 5, (R)-5-amino-N-(4,6-dichloro-2,3-dihydro-1H-inden-1-yl)-2,6-dioxo-1,2,3,6-tetrahydropyrimidine-4-carboxamide] | ≤ 10 µM |  |
| Nc1c(C(=O)NC2CC=C(c3ccc(F)c(F)c3)CC2)[nH]c(=O)[nH]c1=O (stereo not shown) [Example 202, 5-Amino-N-(4-(3,4-difluorophenyl)cyclohex-3-enyl)-2,6-dioxo-1,2,3,6-tetrahydropyrimidine-4-carboxamide] | ≤ 10 µM | 1.91 µM |
| O=C(Nc1ccc2c(c1)CCC[C@H]2NC(=O)c1[nH]c(=O)[nH]c(=O)c1O)c1ccccc1 [Example 288, (R)-N-(6-benzamido-1,2,3,4-tetrahydronaphthalen-1-yl)-5-hydroxy-2,6-dioxo-1,2,3,6-tetrahydropyrimidine-4-carboxamide] | ≤ 10 µM |  |
| Nc1c(C(=O)NC2CCN(c3ccc(C(F)(F)F)cn3)C2)[nH]c(=O)[nH]c1=O (stereo not shown) [Example 190, 5-amino-2,6-dioxo-N-(1-(5-(trifluoromethyl)pyridin-2-yl)pyrrolidin-3-yl)-1,2,3,6-tetrahydropyrimidine-4-carboxamide] | ≤ 10 µM | 0.276 µM |
| O=C(N[C@H]1CCCc2ccccc21)c1[nH]c(=O)[nH]c(=O)c1OCCO [Example 299, (S)-5-(2-Hydroxyethoxy)-2,6-dioxo-N-(1,2,3,4-tetrahydronaphthalen-1-yl)-1,2,3,6-tetrahydropyrimidine-4-carboxamide] | ≤ 10 µM | 9.56 µM |
| Nc1c(C(=O)N[C@@H]2CCC(c3ccc(Cl)c(Cl)c3)c3ccccc32)[nH]c(=O)[nH]c1=O (single isomer, unassigned) [Example 37] | ≤ 10 µM |  |
| COc1ccc2c(c1)C(NC(=O)c1[nH]c(=O)[nH]c(=O)c1N)CC2 (single isomer, unassigned) [Example 73, 5-amino-N-(6-methoxy-2,3-dihydro-1H-inden-1-yl)-2,6-dioxo-1,2,3,6-tetrahydropyrimidine-4-carboxamide] | ≤ 10 µM | 0.468 µM |
| CCOc1cccc(C(=O)N[C@H]2CC[C@@H](NC(=O)c3[nH]c(=O)[nH]c(=O)c3N)CC2)c1 [Example 121, 5-amino-N-(cis-4-(3-ethoxybenzamido)cyclohexyl)-2,6-dioxo-1,2,3,6-tetrahydropyrimidine-4-carboxamide] | ≤ 10 µM |  |
| O=C(N[C@H]1CC[C@@H](c2ccccc2)CC1)c1[nH]c(=O)[nH]c(=O)c1N[C@@H]1C[C@H]2CC[C@@H]1C2 [Example 231, 5-((1R,2R,4S)-bicyclo[2.2.1]heptan-2-ylamino)-2,6-dioxo-N-(cis-4-phenylcyclohexyl)-1,2,3,6-tetrahydropyrimidine-4-carboxamide] | ≤ 10 µM | 3.84 µM |
| O=C(N[C@H]1CCCc2c1cccc2C(F)(F)F)c1[nH]c(=O)[nH]c(=O)c1O [Example 266, (S)-5-hydroxy-2,6-dioxo-N-(5-(trifluoromethyl)-1,2,3,4-tetrahydronaphthalen-1-yl)-1,2,3,6-tetrahydropyrimidine-4-carboxamide] | ≤ 10 µM |  |
| Nc1c(C(=O)N[C@@H]2CCCc3cc(OCC(F)(F)F)ccc32)[nH]c(=O)[nH]c1=O [Example 33, (R)-5-amino-2,6-dioxo-N-(6-(2,2,2-trifluoroethoxy)-1,2,3,4-tetrahydronaphthalen-1-yl)-1,2,3,6-tetrahydropyrimidine-4-carboxamide] | ≤ 10 µM |  |
